Values of other authors, collected in patent publication US6521028B1, “Low hazard corrosion inhibitors and cleaning solutions using quaternary ammonium salts” (HydroChem Industrial Services, Inc., priority 1996, dated 2003).

What was measured:
[1] = not given; remark: listed apart in the source

Structure (SMILES) | amount fatal to humans [mL] | LD50 (oral rats) [1] [mg/kg]
CC(C)O [Isopropanol, isopropanol] | ≥ 100 | 
COC(C)COC(C)CO (stereo not drawn) [dipropylene glycol methyl ether] |  | 5130
NC(N)=S [thiourea] |  | 125
